Assay results from US9278087B2, “Derivative of butylphthalide and preparation method and use thereof” (Shijiazhuang Yiling Pharmaceutical Co., Ltd, priority 2011, dated 2016).
Structures can show the parent of a compound that is named as a salt. Where two headings read alike, the source gives them in different places. Marks after values point to notes of the source that are not given here.

Columns and labels:
rats with local ischemia [1] = test: Volume of cerebral infarction in tMCAO rats, gavage administration; type: in vivo, Wistar rats; details: for Volume of cerebral infarction (25 mg/kg group): 25 mg/kg oral (gavage) 10 min after ischemia; for Volume of cerebral infarction (25 mg/kg group) / Volume of cerebral infarction (50 mg/kg group) / Volume of cerebral infarction (100 mg/kg group): 2 hr ischemia, 24 hr reperfusion; for Volume of cerebral infarction (50 mg/kg group): 50 mg/kg oral (gavage) 10 min after ischemia; for Volume of cerebral infarction (100 mg/kg group): 100 mg/kg oral (gavage) 10 min after ischemia; for Effect on the volume of cerebral infarction, in words: oral administration, compared with solvent control group
Method: (§1) Wistar rats, body weight 250˜280 g, were raised separately before and after the surgical operation, and kept at room temperature of 23˜25° C. All the rats were allowed ad libitum access to food and water. tMCAO models were prepared according to the method of longa, et al. Rats were anaesthetized with 10% chloral hydrate (350 mg/kg, i.p.), and the body temperature was maintained at 37±0.5° C. The rat was fixed in supine position onto an operating table. The skin was cut along the midline of the neck, and the common carotid artery (CCA), external carotid artery (ECA) and internal carotid artery (ICA) on the right side were carefully isolated. The ECA was ligated and cut, and straightened in line with the ICA. A small incision was cut on the ECA, and a 4.0 cm long round-head silicified nylon thread with a diameter of 0.26 mm (coated with 0.1% polylysine) was inserted through this incision into the ICA for about 1.85˜2.00 cm, until the starting place of the anterior cerebral artery of the rat, to block the blood supply of the middle cerebral artery. After 2 hr of ischemia, the nylon thread was pulled out carefully, the ECA incision was ligated, and the operational incision was sutured. The animal was returned to the cage for 24 hr reperfusion.
Rats were randomly divided into 12 groups: model control group, water for injection (100 mg/kg), the administration group of the Compound 7 in Example 1 (25, 50, 100 mg/kg), the administration group of the Compound 8 in Example 1 (25, 50, 100 mg/kg), the administration group of DL-3-(3′-hydroxy)-butylphthalide (DL for short) (25, 50, 100 mg/kg). They were orally administered 10 min after the ischemia caused by MCA blockage.
(§2) After reperfusion injury in the rat for 24 hr, the rat was beheaded and the brain was taken out immediately. The olfactory tract, the cerebellum and the low brain stem were removed. The brain was coronally cut into 6 slices (the first slice to the fifth slice was 2 mm/slice, and the sixth slice was 4 mm), and they were rapidly placed into 5 ml solution containing 1.5 ml 4% TTC and 0.1 ml 1 M K2HPO4 to stain (37° C., shielded from light) for 20˜30 min, wherein they are flipped once every 5 min. After the TTC staining, the normal tissue was dark stained and appeared red, and the infarcted tissue appeared white. Each group of brain slices were neatly arranged and were taken photos for preservation. The infarction area in each slice was calculated, and the infarction volume was finally converted by superposition. The infarction volume was expressed in percentage in a cerebral hemisphere, to eliminate the effects of cerebral edema. Brain infarction volume(%)=(volume of the contralateral hemisphere to the operated side−volume of uninfarcted portion of the operated hemisphere)/volume of the contralateral hemisphere to the operated side*100% (4) Experimental Results

[2] = tested on: mice induced by pentobarbital sodium; test: Hypnosis test of pentobarbital sodium in dosage above threshold; type: in vivo, Kunming mice; details: for Time for falling asleep / Sleeping time: 25 mg/kg gavage for 30 days, pentobarbital sodium 50 mg/kg i.p.; for Sleeping time: within 60 min; for Effect of improving sleep, in words: oral administration to mice for 30 days, summary of both hypnosis tests
Method: (§3) Source of animals: Kunming mice, 18˜22 g, male, were clean grade animals provided by Guangdong Medical Lab Animal Center. In the breeding room of the experimental animals, the temperature was 22±2° C., the relative humidity was 55˜70%, and the animal feed was provided by Guangdong Medical Lab Animal Center.
(§4) 3 groups of Compound 7, Compound 8, DL-3-(3′-hydroxy)-butylphthalide (DL for short) were set in the experiment, 25 mg/kg respectively. And distilled water control group was additionally set.
(§5) Sample processing: 25 mg respective sample was taken, and added with distilled water to 20 ml, to form a uniform suspension, for use in the test.
(§6) Route for administration: gavage
(§7) 40 male mice with a body weight of 18˜22 g were selected, and randomly divided into 4 groups, 10 mice in each group. They were consecutively administered with samples for 30 days, and 15 min after the administration of the samples by gavage on the 30th day, each group of animals were i.p. injected with 50 mg/kg.b.w pentobarbital sodium, and the injection amount was 0.2 ml/20 g.b.w. The criterion for judging falling asleep was that the righting reflex in a mouse disappeared for 1 min or more. The time for falling asleep and the sleeping time of each group of animals within 60 min were observed after administration of pentobarbital sodium.

[3] = tested on: mice induced by pentobarbital sodium; test: Hypnosis test of pentobarbital sodium in dosage below threshold; type: in vivo, Kunming mice; details: for Incidence of sleep / Number of animals falling asleep: 25 mg/kg gavage, pentobarbital sodium 30 mg/kg i.p., within 25 min; for Number of animals falling asleep: 10 animals per group; for Number of animals falling asleep and incidence of sleep compared with control group, in words: pentobarbital sodium in dosage below threshold
Method: as §3, §4, §5, §6
as §7, with “for 28” for “for 30”, “with 30” for “with 50”, “for” for “for falling asleep and”, “the occurrence of sleep” for “the sleeping time”, “within 25” for “within 60”

Solubility in water = type: physicochemical
rats with local ischemia [4] = type: in vivo
Method: as §1, §2
Rats of the ischemia blocking model in Example 11 were taken, and randomly divided into 12 groups: sham operation group, model control group, (water for injection, 10 mg/kg), 1a group (2.5 mg/kg, 5.0 mg/kg, 10 mg/kg), 1b group (2.5 mg/kg, 5.0 mg/kg, 10 mg/kg), and 1c group (2.5 mg/kg, 5.0 mg/kg, 10 mg/kg). 10 min after ischemia caused by MCA blockage, they were administered intravenously.
The determination of the volume of cerebral infarction was the same to Example 4.

[5] = 2.5 mg/kg intravenous 10 min after ischemia, 2 hr ischemia, 24 hr reperfusion
[6] = 5.0 mg/kg intravenous 10 min after ischemia, 2 hr ischemia, 24 hr reperfusion
[7] = 10.0 mg/kg intravenous 10 min after ischemia, 2 hr ischemia, 24 hr reperfusion

Structure (SMILES)	Volume of cerebral infarction (25 mg/kg group) (rats with local ischemia [1]) [%]	Volume of cerebral infarction (50 mg/kg group) (rats with local ischemia [1]) [%]	Volume of cerebral infarction (100 mg/kg group) (rats with local ischemia [1]) [%]	Effect on the volume of cerebral infarction, in words (rats with local ischemia [1])	Time for falling asleep [2] [min]	Sleeping time [2] [min]	Effect of improving sleep, in words [2]	Incidence of sleep [3]	Number of animals falling asleep [3]	Number of animals falling asleep and incidence of sleep compared with control group, in words [3]	Volume of cerebral infarction (2.5 mg/kg group) (rats with local ischemia [4]; [5]) [%]	Volume of cerebral infarction (5.0 mg/kg group) (rats with local ischemia [4]; [6]) [%]	Volume of cerebral infarction (10.0 mg/kg group) (rats with local ischemia [4]; [7]) [%]	further results
CC(O)CCC1OC(=O)c2ccccc21 (racemic) [DL, DL-3-(3′-hydroxy)-butylphthalide, reference compound]	17.2	16.4	14.5	can significantly reduce the volume of cerebral infarction	4.68 ± 1.35	45.48 ± 11.23	have effects of improving sleep	50%	5	have significant difference	–	–	–	–
CC(O)CC[C@H]1OC(=O)c2ccccc21 (single isomer, unassigned; (+)) [Compound 7]	19.8	18.9	–	did not effectively reduce the volume of cerebral infarction	5.78 ± 1.88	41.16 ± 7.80	does not have the effect of improving sleep	30%	3	–	–	–	–	Effect on the volume of cerebral infarction, in words (rats with local ischemia [1]; listed as R-configuration): cannot affect the cerebral infarct volume; Effect on the volume of cerebral infarction, in words (rats with local ischemia [1]; listed as compound in R-configuration): does not have the effect of reducing the cerebral infarct volume
CC(O)CC[C@@H]1OC(=O)c2ccccc21 (single isomer, unassigned; (-)) [Compound 8]	14.6	13.8	11.8	can significantly reduce the volume of cerebral infarction	3.91 ± 0.99	53.28 ± 11.12	have effects of improving sleep	80* %	8*	have significant difference	–	–	–	Effect on the volume of cerebral infarction, in words (rats with local ischemia [1]; listed as S-configuration): decreasing the cerebral infarct volume; Effect of improving sleep, in words ([2]; listed as S-configuration): can improve the sleeping state in animals; Effect of improving sleep, in words ([2]; listed as S-configuration of the Metabolite I): has the effect of improving sleep; Time for falling asleep and sleeping time compared with control group, in words ([2]; pentobarbital sodium in dosage above threshold): have significant difference; Solubility in water, in words (Solubility in water): insoluble in water
CC(CC[C@@H]1OC(=O)c2ccccc21)OC(=O)CCC(=O)[O-].[Na+] (stereo partly drawn) [Compound 1a, sodium salt of (S)-3-(3′-succinate ester)butylphthalide]	–	–	–	–	–	–	–	–	–	–	21	15.4	11.8	–
CC(CC[C@@H]1OC(=O)c2ccccc21)OC(=O)CN (stereo partly drawn) [Compound 1b, (S)-3-(3′-glycinate ester)butylphthalide hydrochloride]	–	–	–	–	–	–	–	–	–	–	–	–	–	Volume of cerebral infarction (2.5 mg/kg group) (rats with local ischemia [4]; rat, in vivo): 21.3%; Volume of cerebral infarction (5.0 mg/kg group) (rats with local ischemia [4]; rat, in vivo): 16.0%; Volume of cerebral infarction (10.0 mg/kg group) (rats with local ischemia [4]; rat, in vivo): 12.0%
CC(CC[C@@H]1OC(=O)c2ccccc21)OP(=O)([O-])[O-].[Na+].[Na+] (stereo partly drawn) [Compound 1c, (S)-3-(3′-phosphate ester)butylphthalide disodium salt]	–	–	–	–	–	–	–	–	–	–	20.6	15.8	11.7	–
